This assay has as its target T1, human MC4-R (Homo sapiens, UniProt P32245).
T1 construct: expressed in transfected cells; host or cells: HEK293 T-REx (tetracycline-regulated, Invitrogen); cell line from Palatin Technologies with license from the University of Michigan
The experiment in a line: cAMP functional assay in HEK-293 T-REx cells expressing human MC4-R, induced with doxycycline 0.1 ng/mL (low density). As to conditions: for Emax: HEK293-T-REx; for EC50: human MC4-R cAMP assay, read-out: Ec50. Format: cell-based. The source says:
A HEK293 cell line transfected with human MC4-R (from Palatin Technologies, US, with license from the University of Michigan) was used. The human MC4-R was introduced to HEK293 by using the T-REx™ System, Invitrogen. The T-REx™ System employs a tetracycline-regulated mammalian expression system that uses regulatory elements from the E. coli Tn10-encoded tetracycline (Tet) resistance operon. By use of the T-REx™ System, expression of the gene of interest, the human MC4-R gene, is repressed in the absence of tetracycline or doxycycline and induced in the presence of tetracycline or doxycycline (see T-REx™ System Manual, published by Invitrogen).
Cells were then counted and volume was adjusted to 5×10^4 cells per 200 μL.
The cells were then dispensed into 96-well plates (BD 353916) in 198 μL (about 5×10^4) cells/well and incubated for 10 minutes at 37° C. The compound to be tested was diluted with DMSO to a final concentration of 1 mM. Serial dilution was prepared in polypropylene removable 12-well library tube strips (VWR cat #83009-682). 120 μL of the 1 mM compound stock was pipetted in the second column on the plate.
2 μL of the standard, [Nle^4, D-Phe^7]alpha-Melanocyte Stimulating Hormone (NDP-α-MSH), or compound was added to the 96-well plate using the Janus robotic system. All assay samples were run in duplicate (i.e. each sample was in two low dox and two high dox plates, respectively). The plates were gently shaken and incubated for 15 minutes at 37° C. The reaction was stopped by adding 15 μL of lysis buffer per well and the plates were shakened for 30 minutes at room temperature.
Agonist stimulation of the MC4-R activates adenylate cyclase, which is an enzyme that catalyses the formation 3′,5′-cyclic adenosine monophosphate (cAMP) from adenosine triphosphate (ATP). […] Fluoresence ratios were then calculated as described in the CisBio HTRF kit, with GraphPad Prism software used to plot the change in fluorescence percent values versus cAMP concentration using the variable slope dose response curve and, based on calculated cAMP concentrations, to determine EC50 and Emax values. […]
On the technique in general: Cyclic AMP is a second messenger, typically raised through Gs and lowered through Gi signalling.

Where [1] appears, read: maximal cAMP stimulation, NDP-α-MSH = 100%, doxycycline 0.1 ng/mL, averages of all comparable assays, read-out: Emax.
[2] abbreviates: doxycycline 0.1 ng/mL, averages of all comparable assays.

22 molecules from US20120077957A1, “Lactam-Bridged Melanocortin Receptor-Specific Peptides” (PALATIN TECHNOLOGIES, INC., priority 2009, published 2012) can be followed below.

As a reminder, the Emax is the size of the effect at its maximum, as opposed to the concentration needed. Usually EC50 stands for the concentration that produces a half-maximal response.

Each structure is given as a SMILES string. Where two headings read alike, the source gives them in different places. Bridge positions count the residues as written; N and C are the ends. Square brackets hold non-standard residues; d marks the D form. Peptide text beside a SMILES is read from it. Orn = NCCC[C@H](N)C(=O)O

T1 sequence (P32245 whole entry): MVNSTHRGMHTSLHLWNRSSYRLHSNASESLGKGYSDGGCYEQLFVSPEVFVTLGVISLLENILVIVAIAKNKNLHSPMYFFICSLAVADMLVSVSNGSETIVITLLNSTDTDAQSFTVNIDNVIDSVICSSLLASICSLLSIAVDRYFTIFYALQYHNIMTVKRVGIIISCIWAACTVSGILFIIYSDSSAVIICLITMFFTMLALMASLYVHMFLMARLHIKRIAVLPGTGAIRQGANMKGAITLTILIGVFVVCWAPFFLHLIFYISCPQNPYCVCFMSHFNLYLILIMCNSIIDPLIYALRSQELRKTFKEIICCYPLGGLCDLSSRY

With `CC(=O)N[C@@H](CCCNC(=N)N)C(=O)N[C@H]1CCC(=O)NCCC[C@@H](C(=O)O)NC(=O)[C@H](Cc2c[nH]c3ccccc23)NC(=O)[C@H](CCCNC(=N)N)NC(=O)[C@@H](Cc2ccccc2)NC(=O)[C@H](CCCN)NC1=O` [No. 7, Ac-Arg-cyclo(GIu-Orn-D-Phe-Arg-Trp-Orn)-OH], the Emax under setting [1] was determined as 92%. Further, the concentration giving a half-maximal response (EC50) under setting [2] came out at 4 nM.
As for `CCCC[C@H](NC(C)=O)C(=O)N[C@H]1CC(=O)NCCCC[C@@H](C(=O)O)NC(=O)[C@H](Cc2c[nH]c3ccccc23)NC(=O)[C@H](CCCNC(=N)N)NC(=O)[C@@H](Cc2ccccc2)NC(=O)[C@H](Cc2c[nH]cn2)NC1=O` [Ac-Nle-cyclo(Asp-His-D-Phe-Arg-Trp-Lys)-OH, reference compound], the Emax turned out to be 81%.
Turning to `CC(=O)N[C@@H](CCCNC(=N)N)C(=O)N[C@H]1CC(=O)NCCCC[C@@H](C(=O)O)NC(=O)[C@H](Cc2c[nH]c3ccccc23)NC(=O)[C@H](CCCNC(=N)N)NC(=O)[C@@H](Cc2ccccc2)NC(=O)[C@H](CCC(N)=O)NC1=O` [reference compound], the maximum response (Emax) under setting [1] came out at 80%. Under setting [2], the EC50 is 19 nM.
Consider `CC(=O)N[C@@H](CCCNC(=N)N)C(=O)N[C@H]1CCC(=O)NCCC[C@@H](C(=O)O)NC(=O)[C@H](Cc2c[nH]c3ccccc23)NC(=O)[C@H](CCCNC(=N)N)NC(=O)[C@@H](Cc2ccccc2)NC(=O)[C@H](Cc2c[nH]cn2)NC1=O` [No. 3, Ac-Arg-cyclo(Glu-His-D-Phe-Arg-Trp-Orn)-OH] (Ac-REH[dF]RW[Orn]-OH; lactam 2-7), for which the maximal effect (Emax) under setting [1] worked out at 83%. In addition, the EC50 under setting [2] came out at 0.7 nM.
The like results for `CC(=O)N[C@H](CCCNC(=N)N)C(=O)N[C@H]1CCCNC(=O)CC[C@@H](C(N)=O)NC(=O)[C@H](Cc2c[nH]c3ccccc23)NC(=O)[C@H](CCCNC(=N)N)NC(=O)[C@@H](Cc2ccccc2)NC(=O)[C@H](Cc2c[nH]cn2)NC1=O` [No. 39, Ac-D-Arg-cyclo(Orn-His-D-Phe-Arg-Trp-Glu)-NH2] were, in that order, 103% and 0.2 nM.
As to `CC(=O)N[C@@H](CCCNC(=N)N)C(=O)N[C@H]1CC(=O)NCCCC[C@@H](C(=O)O)NC(=O)[C@H](Cc2c[nH]c3ccccc23)NC(=O)[C@H](CCCNC(=N)N)NC(=O)[C@@H](Cc2ccccc2)NC(=O)[C@H](CCCNC(=N)N)NC1=O` [reference compound], under setting [1], the Emax was determined as 75%.
Same read-out and setting: the value for `CC(=O)N[C@@H](CCCNC(=N)N)C(=O)N[C@H]1CC(=O)NCCCC[C@@H](C(N)=O)NC(=O)[C@H](Cc2c[nH]c3ccccc23)NC(=O)[C@H](CCCNC(=N)N)NC(=O)[C@@H](Cc2ccccc2)NC(=O)[C@H](CCN)NC1=O` [reference compound] was 91%.
For `CC(=O)N[C@@H](CCCNC(=N)N)C(=O)N[C@H]1CCC(=O)NCCC[C@@H](C(=O)NC2CC2)NC(=O)[C@H](Cc2c[nH]c3ccccc23)NC(=O)[C@H](CCCNC(=N)N)NC(=O)[C@@H](Cc2ccccc2)NC(=O)[C@H](CCC(N)=O)NC1=O` [No. 19, Ac-Arg-cyclo(Glu-Gln-D-Phe-Arg-Trp-Orn)-NH-cycProp], the Emax under setting [1] amounted to 91%. The concentration for a half-maximal effect (EC50) under setting [2] worked out at 1 nM.
The matching figures for `CC(=O)N[C@@H](CCCNC(=N)N)C(=O)N[C@H]1CCC(=O)NCCC[C@@H](C(N)=O)NC(=O)[C@H](Cc2c[nH]c3ccccc23)NC(=O)[C@H](CCCNC(=N)N)NC(=O)[C@@H](Cc2ccccc2)NC(=O)[C@H](CCCCN)NC1=O` [No. 16, Ac-Arg-cyclo(Glu-Lys-D-Phe-Arg-Trp-Orn)-NH2] (Ac-REK[dF]RW[Orn]-NH2; lactam 2-7): 104% and 2 nM.
Take `CC(=O)N[C@@H](CCCNC(=N)N)C(=O)N[C@H]1CC(=O)NCCCC[C@@H](C(=O)O)NC(=O)[C@H](Cc2c[nH]c3ccccc23)NC(=O)[C@H](CCCNC(=N)N)NC(=O)[C@@H](Cc2ccccc2)NC(=O)[C@H](CC(N)=O)NC1=O` [reference compound] (Ac-RDN[dF]RWK-OH; lactam 2-7): the maximal effect (Emax) under setting [1] worked out at 73%.
Regarding `CC(=O)N[C@@H](CCCNC(=N)N)C(=O)N[C@H]1CCCNC(=O)CC[C@@H](C(=O)O)NC(=O)[C@H](Cc2c[nH]c3ccccc23)NC(=O)[C@H](CCCNC(=N)N)NC(=O)[C@@H](Cc2ccccc2)NC(=O)[C@H](CCN)NC1=O` [No. 42, Ac-Arg-cyclo(Orn-Dab-D-Phe-Arg-Trp-Glu)-OH], the Emax under setting [1] stood at 100%.
On the same count and under the same terms, the value for `CC(=O)N[C@@H](CCCNC(=N)N)C(=O)N[C@H]1CCC(=O)NCCC[C@@H](C(=O)O)NC(=O)[C@H](Cc2c[nH]c3ccccc23)NC(=O)[C@H](CCCNC(=N)N)NC(=O)[C@@H](Cc2ccccc2)NC(=O)[C@H](CCC(N)=O)NC1=O` [No. 11, Ac-Arg-cyclo(Glu-Gln-D-Phe-Arg-Trp-Orn)-OH] was 81%; that for `CC(=O)NCC[C@@H]1NC(=O)[C@@H](NC(=O)[C@H](CCCNC(=N)N)NC(C)=O)CCC(=O)NCCC[C@@H](C(N)=O)NC(=O)[C@H](Cc2c[nH]c3ccccc23)NC(=O)[C@H](CCCNC(=N)N)NC(=O)[C@@H](Cc2ccccc2)NC1=O` [No. 18, Ac-Arg-cyclo(Glu-Dab(Acetyl)-D-Phe-Arg-Trp-Orn)-NH2] was 75%.
Regarding `CC(=O)N[C@@H](CCCNC(=N)N)C(=O)N[C@H]1CCC(=O)NCCC[C@@H](C(=O)O)NC(=O)[C@H](Cc2c[nH]c3ccccc23)NC(=O)[C@H](CCCNC(=N)N)NC(=O)[C@@H](Cc2ccccc2)NC(=O)[C@H](CCCNC(=N)N)NC1=O` [No. 9, Ac-Arg-cyclo(Glu-Arg-D-Phe-Arg-Trp-Orn)-OH], under setting [1], the maximal response (Emax) is 82%. The EC50 under setting [2] was determined as 2 nM.
The matching figures for `CC(=O)N[C@@H](CCCNC(=N)N)C(=O)N[C@H]1CC(=O)NCCCC[C@@H](C(N)=O)NC(=O)[C@H](Cc2c[nH]c3ccccc23)NC(=O)[C@H](CCCNC(=N)N)NC(=O)[C@@H](Cc2ccccc2)NC(=O)[C@H](CCCCN)NC1=O` [reference compound] (Ac-RDK[dF]RWK-NH2; lactam 2-7): 97% and 8 nM.
The matching figures for `CC(=O)N[C@H]1CCC(=O)NCCC[C@@H](C(N)=O)NC(=O)[C@H](Cc2c[nH]c3ccccc23)NC(=O)[C@H](CCCNC(=N)N)NC(=O)[C@@H](Cc2ccccc2)NC(=O)[C@H](CCC(N)=O)NC1=O` [No. 21, Ac-cyclo(Glu-Gln-D-Phe-Arg-Trp-Orn)-NH2] (Ac-EQ[dF]RW[Orn]-NH2; lactam 1-6): 49% and 26 nM.
The matching figures for `CC(=O)N[C@@H](CCCNC(=N)N)C(=O)N[C@H]1CC(=O)NCCCC[C@@H](C(=O)O)NC(=O)[C@H](Cc2c[nH]c3ccccc23)NC(=O)[C@H](CCCNC(=N)N)NC(=O)[C@@H](Cc2ccccc2)NC(=O)[C@H](Cc2c[nH]cn2)NC1=O` [reference compound]: 91% and 4 nM.
With `CC(=O)N[C@@H](CCCNC(=N)N)C(=O)N[C@H]1CC(=O)NCCCC[C@@H](C(=O)NC2CC2)NC(=O)[C@H](Cc2c[nH]c3ccccc23)NC(=O)[C@H](CCCNC(=N)N)NC(=O)[C@@H](Cc2ccccc2)NC(=O)[C@H](CCC(N)=O)NC1=O` [reference compound], the Emax under setting [1] worked out at 79%. Further, the EC50 under setting [2] worked out at 9 nM.
On to `CC(=O)N[C@@H](CCCNC(=N)N)C(=O)N[C@H]1CCC(=O)NCCC[C@@H](C(N)=O)NC(=O)[C@H](Cc2c[nH]c3ccccc23)NC(=O)[C@H](CCCNC(=N)N)NC(=O)[C@@H](Cc2ccccc2)NC(=O)[C@H](CCCNC(=N)N)NC1=O` [No. 10, Ac-Arg-cyclo(Glu-Arg-D-Phe-Arg-Trp-Orn)-NH2], for which the maximal effect (Emax) under setting [1] was 98%.
For `CC(=O)N[C@@H](CCCNC(=N)N)C(=O)N[C@H]1CC(=O)NCCCC[C@@H](C(N)=O)NC(=O)[C@H](Cc2c[nH]c3ccccc23)NC(=O)[C@H](CCCNC(=N)N)NC(=O)[C@@H](Cc2ccccc2)NC(=O)[C@H](Cc2c[nH]cn2)NC1=O` [reference compound], the Emax under setting [1] worked out at 83%.
On the same count and under the same terms, the value for `CC(=O)N[C@@H](CCCNC(=N)N)C(=O)N[C@H]1CCCNC(=O)CC[C@@H](C(N)=O)NC(=O)[C@H](Cc2c[nH]c3ccccc23)NC(=O)[C@H](CCCNC(=N)N)NC(=O)[C@@H](Cc2ccccc2)NC(=O)[C@H](CC(N)=O)NC1=O` [No. 46, Ac-Arg-cyclo(Orn-Asn-D-Phe-Arg-Trp-Glu)-NH2] was 88%.
For the molecule `CC(=O)N[C@@H](CCCNC(=N)N)C(=O)N[C@H]1CCC(=O)NCCC[C@@H](C(=O)O)NC(=O)[C@H](Cc2c[nH]c3ccccc23)NC(=O)[C@H](CCCNC(=N)N)NC(=O)[C@@H](Cc2ccccc2)NC(=O)[C@H](CC(N)=O)NC1=O` [No. 20, Ac-Arg-cyclo(Glu-Asn-D-Phe-Arg-Trp-Orn)-OH], the maximum response (Emax) under setting [1] was 76%. Moreover, the EC50 under setting [2] was 12 nM.
